# Experimental data reported in PMC12381718 (2025).
# Assays:
# [1] = tested on: ds26 (DNA, duplex) CAATCGGATCGAATTCGATCCGATTG; assay: UV-visible titration; settings: K+ (100 mM potassium phosphate), 100 mM KPhos pH 7.4, ambient temperature, 10 µM ligand, apparent
# [2] = tested on: ds26 (DNA, duplex) CAATCGGATCGAATTCGATCCGATTG; assay: CD titration; settings: K+ (100 mM potassium phosphate); 100 mM KPhos pH 7.4, 20 °C; 5 µM DNA; weak Ka seen by UV-visible
Ka [1],binding [2],Ka ([1]; continuous 405 nm irradiation),SMILES
2.53 × 10^3 M^–1,–,–,C[n+]1ccc(-c2ccc3c(c2)CCc2cc(-c4cc[n+](C)cc4)ccc2/N=N\3)cc1
–,no,2.44 × 10^3 M^–1,C[n+]1ccc(-c2ccc3c(c2)CCc2cc(-c4cc[n+](C)cc4)ccc2/N=N/3)cc1
